# Paper PMC8199213, “Pharmacophore-Based Virtual Screening of Novel Competitive Inhibitors of the Neurodegenerative Disease Target Kynurenine-3-Monooxygenase” (Molecules, 2021)
# Experiments:
# [1] = molecular target: T1, human kynurenine-3-monooxygenase (hKMO) (Homo sapiens, UniProt O15229); assay: KMO NADPH-consumption assay (BPS Bioscience KMO Screening Kit), dose-response; positive control; type: biochemical
# T1 construct: gene KMO; purified KMO protein with C-terminal His-FLAG-tag
# [2] = molecular target: T1, human kynurenine-3-monooxygenase (hKMO); assay: KMO NADPH-consumption assay; […] inhibition at […], […] at […]; type: biochemical
# T1 sequence (O15229 whole entry): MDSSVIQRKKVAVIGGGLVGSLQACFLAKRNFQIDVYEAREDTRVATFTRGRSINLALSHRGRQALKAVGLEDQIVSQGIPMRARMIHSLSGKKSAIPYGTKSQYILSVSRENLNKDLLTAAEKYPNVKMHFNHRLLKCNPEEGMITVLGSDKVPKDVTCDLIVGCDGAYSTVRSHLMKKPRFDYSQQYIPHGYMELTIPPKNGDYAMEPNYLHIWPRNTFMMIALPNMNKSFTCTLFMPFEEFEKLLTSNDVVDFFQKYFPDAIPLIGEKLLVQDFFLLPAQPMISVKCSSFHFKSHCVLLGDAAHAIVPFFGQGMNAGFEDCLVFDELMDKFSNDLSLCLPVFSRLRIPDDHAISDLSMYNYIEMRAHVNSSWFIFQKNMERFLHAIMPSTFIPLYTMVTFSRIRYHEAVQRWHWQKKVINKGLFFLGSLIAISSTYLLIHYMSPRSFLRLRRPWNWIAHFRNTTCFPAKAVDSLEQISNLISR
IC50 [2] [nM],SMILES,IC50 [1] [nM]
–,COc1ccc(S(=O)(=O)Nc2nc(-c3cccc([N+](=O)[O-])c3)cs2)cc1OC [Ro 61-8084],727 ± 88
< 10000,"Cc1cc2nc(CCC(=O)O)c(=O)[nH]c2cc1C [VS6, F6548-0495]",–
